SMILES strings stand for the structures.

Assay [1] has as its system Verona-integron-encoded MBL 2. The conditions noted are these: against Verona-integron-encoded MBL 2; cited from earlier work.
Assay [2] concerns NDM-1. It is filed as biochemical. The conditions noted are these: against the NDMs (NDM-1 and NDM-4).
Description: The IC50 and Ki values were determined by the direct competition between nitrocefin substrate and inhibitors under appropriately controlled experiments. Different concentrations of inhibitor ranging from 0.001 to 500 μM, a fixed concentration of 12 nM of purified protein, and 20 μM of nitrocefin substrate were used in reaction. The rate of product formation was monitored based on the absorbance at 486 nm taken at 10 s intervals for 30 min. The relative change in absorbance was evaluated as percentage inhibition, and the IC50 was determined by fitting the data to a sigmoidal dose-response curve. The enzyme inhibition constant (Ki) was derived from initial-velocity measurements by nonlinear regression via competitive-inhibition enzyme kinetics using GraphPad Prism 9.
The target of a further assay is T1, NDM-4 (M154L) (Klebsiella pneumoniae, UniProt C7C422, M154L).
T1 construct: The electron density for the polypeptide chain was continuous from Gly 42 to Arg 270; polyhistidine (with TEV site) (N, cleaved yes); made in house; host or cells: Rosetta2(DE3) E. coli
Description: Steady state kinetics of nitrocefin hydrolysis, NDM-4. It is filed as biochemical. The conditions noted are these: nitrocefin as substrate. How it is done:
(§1) Nitrocefin (Cayman, CAS 41906-86-9) was used as the chromogenic substrate for all enzyme kinetic assays. The enzymatic activity of purified NDM-1 and NDM-4 was determined spectrophotometrically at room temperature in 1X PBS, pH 7. The rate of product formation was monitored based on the absorbance at 486 nm taken at 10 s intervals for 30 min. The KM and kcat values were determined from ten different concentrations of nitrocefin ranging from 0.01 μM to 250 μM with at least four independent initial-velocity measurements using 12 nM of each enzyme and fitted by nonlinear regression using Michaelis–Menten enzyme kinetics with GraphPad Prism 9 (https://www.graphpad.com/).

Assay [3] addresses NDM-1 (Klebsiella pneumoniae, UniProt C7C422). Put plainly: Steady state kinetics of nitrocefin hydrolysis, NDM-1. In kind it is biochemical. The conditions noted are these: nitrocefin as substrate. How it is done:
as §1

Chain of NDM-1 (Klebsiella pneumoniae, UniProt C7C422) (C7C422 42-270 limits assumed): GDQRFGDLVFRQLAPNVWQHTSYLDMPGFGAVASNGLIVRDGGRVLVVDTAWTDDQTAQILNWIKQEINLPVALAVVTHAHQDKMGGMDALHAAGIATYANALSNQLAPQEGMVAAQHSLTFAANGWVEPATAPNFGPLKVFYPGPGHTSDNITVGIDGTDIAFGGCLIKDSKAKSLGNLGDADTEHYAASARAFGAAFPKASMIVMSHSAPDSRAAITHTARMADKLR
T1 sequence (C7C422 42-270 M154L): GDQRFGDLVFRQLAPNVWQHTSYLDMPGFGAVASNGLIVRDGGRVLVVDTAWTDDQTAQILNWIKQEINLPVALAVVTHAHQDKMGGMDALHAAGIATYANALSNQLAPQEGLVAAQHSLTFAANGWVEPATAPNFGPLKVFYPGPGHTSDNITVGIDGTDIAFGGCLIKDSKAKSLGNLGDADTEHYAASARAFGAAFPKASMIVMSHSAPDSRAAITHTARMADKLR

Regarding `O=C(O)c1cccc(=S)n1O` [Compound 1, 1-hydroxypyridine-2(1H)-thione-6-carboxylic acid], in assay [1], the “enhanced inhibition activity over parent scaffold 1,2 hydroxy pyrithione” value was “more than 10 fold”. The “potency over L-captopril” value with NDM-1 [2] is given as greater than 1600 fold.
Regarding `O=C(Cc1cccs1)N[C@@H]1C(=O)N2C(C(=O)O)=C(/C=C/c3ccc([N+](=O)[O-])cc3[N+](=O)[O-])CS[C@H]12` [Nitrocefin], the kcat at NDM-4 (M154L) (NDM-4) was 70 ± 7 s⁻¹; at NDM-1 [3] (NDM-1) it was 86 ± 11 s⁻¹. Further, the Km at NDM-4 (M154L) (NDM-4, 1X PBS pH 7, room temperature) amounted to 9.4 ± 0.2 µM; at NDM-1 [3] (NDM-1, 1X PBS pH 7, room temperature), 10.9 ± 0.6 µM.

As usually defined, the kcat is the number of substrate molecules converted per active site and unit of time at saturation. The term Km denotes the concentration of substrate that gives half-maximal velocity.
